Data taken from PubChem BioAssay AID248 (DTP/NCI, 2004).
Several values for one entry are separate records, joined by “and”; a condition that tells them apart may be missing. Identical values can stand only once. Toxic doses and inconclusive results are not listed. Cut-off read from the data, not from the text of the source: active = T/C of 150% or more; inactive = T/C below 125%.

System: L1210 leukemia ip in BDF1 mice, survival T/C
Test: NCI In Vivo Anticancer Drug Screen. Data for tumor model L1210 Leukemia (intraperitoneal) in B6D2F1 (BDF1) mice
Conditions: higher = longer survival
Method in brief: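 Mice bearing the transplanted tumor received compound or vehicle. Survival of the treated group was divided by that of the vehicle-treated control group to give the ratio.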

Measured: T/C

O=C1OC(C(O)CO)C(O)=C1O (configuration not stated)
inactive: endpoint: mean survival time, dose: 0.05 mg/kg/injection, schedule: Q01DX005 (iv), vehicle: saline 98 % of control | endpoint: mean survival time, dose: 0.05 mg/kg/injection, schedule: Q01DX009 (oral), vehicle: saline 102 % of control | endpoint: mean survival time, dose: 0.1 mg/kg/injection, schedule: Q01DX005 (iv), vehicle: saline 97 % of control | endpoint: mean survival time, dose: 0.1 mg/kg/injection, schedule: Q01DX009 (ip), vehicle: saline 95 % of control | endpoint: mean survival time, dose: 0.1 mg/kg/injection, schedule: Q01DX009 (oral), vehicle: saline 98 % of control | endpoint: mean survival time, dose: 0.1 mg/kg/injection, schedule: Q01DX009 (sc), vehicle: saline 98 % of control | endpoint: mean survival time, dose: 0.12 mg/kg/injection, schedule: Q01DX009 (ip), vehicle: saline 100 % of control | endpoint: mean survival time, dose: 0.13 mg/kg/injection, schedule: Q01DX009 (ip), vehicle: saline 100 % of control | endpoint: mean survival time, dose: 0.2 mg/kg/injection, schedule: Q01DX005 (iv), vehicle: saline 102 % of control | endpoint: mean survival time, dose: 0.2 mg/kg/injection, schedule: Q01DX009 (im), vehicle: saline 98 % of control | endpoint: mean survival time, dose: 0.2 mg/kg/injection, schedule: Q01DX009 (ip), vehicle: saline 101 % of control | endpoint: mean survival time, dose: 0.39 mg/kg/injection, schedule: Q01DX005 (iv), vehicle: saline 95 % of control | endpoint: mean survival time, dose: 0.39 mg/kg/injection, schedule: Q01DX009 (im), vehicle: saline 95 % of control | endpoint: mean survival time, dose: 0.39 mg/kg/injection, schedule: Q01DX009 (ip), vehicle: saline 95 % of control | endpoint: mean survival time, dose: 0.39 mg/kg/injection, schedule: Q01DX009 (oral), vehicle: saline 98 % of control | endpoint: mean survival time, dose: 0.5 mg/kg/injection, schedule: Q01DX001 (ip), vehicle: saline 97 % of control | endpoint: mean survival time, dose: 0.5 mg/kg/injection, schedule: Q01DX009 (ip), vehicle: saline 96 % of control and 101 % of control | endpoint: mean survival time, dose: 0.78 mg/kg/injection, schedule: Q01DX005 (iv), vehicle: saline 98 % of control | endpoint: mean survival time, dose: 0.78 mg/kg/injection, schedule: Q01DX009 (im), vehicle: saline 93 % of control | endpoint: mean survival time, dose: 0.78 mg/kg/injection, schedule: Q01DX009 (ip), vehicle: saline 102 % of control | endpoint: mean survival time, dose: 0.78 mg/kg/injection, schedule: Q01DX009 (oral), vehicle: saline 99 % of control | endpoint: mean survival time, dose: 1.0 mg/kg/injection, schedule: Q01DX001 (ip), vehicle: saline 100 % of control and 101 % of control | endpoint: mean survival time, dose: 1.0 mg/kg/injection, schedule: Q01DX009 (ip), vehicle: saline 95 % of control and 101 % of control | endpoint: mean survival time, dose: 1.56 mg/kg/injection, schedule: Q01DX005 (iv), vehicle: saline 98 % of control | endpoint: mean survival time, dose: 1.56 mg/kg/injection, schedule: Q01DX009 (im), vehicle: saline 100 % of control | endpoint: mean survival time, dose: 1.56 mg/kg/injection, schedule: Q01DX009 (ip), vehicle: saline 93 % of control | endpoint: mean survival time, dose: 1.56 mg/kg/injection, schedule: Q01DX009 (oral), vehicle: saline 94 % of control | endpoint: mean survival time, dose: 2.0 mg/kg/injection, schedule: Q01DX001 (ip), vehicle: saline 101 % of control and 103 % of control | endpoint: mean survival time, dose: 2.0 mg/kg/injection, schedule: Q01DX009 (ip), vehicle: saline 95 % of control and 97 % of control | endpoint: mean survival time, dose: 3.12 mg/kg/injection, schedule: Q01DX005 (iv), vehicle: saline 95 % of control | endpoint: mean survival time, dose: 3.12 mg/kg/injection, schedule: Q01DX009 (im), vehicle: saline 95 % of control | endpoint: mean survival time, dose: 3.12 mg/kg/injection, schedule: Q01DX009 (oral), vehicle: saline 93 % of control | endpoint: mean survival time, dose: 3.12 mg/kg/injection, schedule: Q01DX009 (sc), vehicle: saline 96 % of control | endpoint: mean survival time, dose: 4.0 mg/kg/injection, schedule: Q01DX001 (ip), vehicle: saline 101 % of control and 104 % of control | endpoint: mean survival time, dose: 4.0 mg/kg/injection, schedule: Q01DX009 (ip), vehicle: saline 94 % of control and 101 % of control | endpoint: mean survival time, dose: 6.25 mg/kg/injection, schedule: Q01DX009 (im), vehicle: saline 98 % of control | endpoint: mean survival time, dose: 6.25 mg/kg/injection, schedule: Q01DX009 (ip), vehicle: saline 95 % of control | endpoint: mean survival time, dose: 6.25 mg/kg/injection, schedule: Q01DX009 (oral), vehicle: saline 98 % of control | endpoint: mean survival time, dose: 6.25 mg/kg/injection, schedule: Q01DX009 (sc), vehicle: saline 102 % of control | endpoint: mean survival time, dose: 8.0 mg/kg/injection, schedule: Q01DX001 (ip), vehicle: saline 100 % of control | endpoint: mean survival time, dose: 8.0 mg/kg/injection, schedule: Q01DX009 (ip), vehicle: saline 95 % of control and 97 % of control | endpoint: mean survival time, dose: 12.5 mg/kg/injection, schedule: Q01DX009 (im), vehicle: saline 100 % of control | endpoint: mean survival time, dose: 12.5 mg/kg/injection, schedule: Q01DX009 (ip), vehicle: saline 102 % of control | endpoint: mean survival time, dose: 12.5 mg/kg/injection, schedule: Q01DX009 (oral), vehicle: saline 100 % of control | endpoint: mean survival time, dose: 12.5 mg/kg/injection, schedule: Q01DX009 (sc), vehicle: saline 94 % of control | endpoint: mean survival time, dose: 16.0 mg/kg/injection, schedule: Q01DX001 (ip), vehicle: saline 94 % of control | endpoint: mean survival time, dose: 16.0 mg/kg/injection, schedule: Q01DX009 (ip), vehicle: saline 101 % of control | endpoint: mean survival time, dose: 25.0 mg/kg/injection, schedule: Q01DX009 (ip), vehicle: saline 95 % of control | endpoint: mean survival time, dose: 25.0 mg/kg/injection, schedule: Q01DX009 (sc), vehicle: saline 102 % of control | endpoint: mean survival time, dose: 32.0 mg/kg/injection, schedule: Q01DX001 (ip), vehicle: saline 97 % of control | endpoint: mean survival time, dose: 32.0 mg/kg/injection, schedule: Q01DX009 (ip), vehicle: saline 103 % of control | endpoint: mean survival time, dose: 37.5 mg/kg/injection, schedule: Q01DX009 (ip), vehicle: saline 98 % of control | endpoint: mean survival time, dose: 50.0 mg/kg/injection, schedule: Q01DX005 (iv), vehicle: saline 102 % of control | endpoint: mean survival time, dose: 50.0 mg/kg/injection, schedule: Q01DX009 (im), vehicle: saline 96 % of control | endpoint: mean survival time, dose: 50.0 mg/kg/injection, schedule: Q01DX009 (ip), vehicle: saline 96 % of control | endpoint: mean survival time, dose: 50.0 mg/kg/injection, schedule: Q01DX009 (oral), vehicle: saline 100 % of control | endpoint: mean survival time, dose: 64.0 mg/kg/injection, schedule: Q01DX001 (ip), vehicle: saline 97 % of control and 101 % of control | endpoint: mean survival time, dose: 100.0 mg/kg/injection, schedule: Q01DX001 (ip), vehicle: saline 96 % of control | endpoint: mean survival time, dose: 100.0 mg/kg/injection, schedule: Q01DX005 (iv), vehicle: saline 97 % of control | endpoint: mean survival time, dose: 100.0 mg/kg/injection, schedule: Q01DX009 (im), vehicle: saline 96 % of control | endpoint: mean survival time, dose: 100.0 mg/kg/injection, schedule: Q01DX009 (ip), vehicle: saline 93 % of control and 98 % of control | endpoint: mean survival time, dose: 100.0 mg/kg/injection, schedule: Q01DX009 (oral), vehicle: saline 103 % of control | endpoint: mean survival time, dose: 100.0 mg/kg/injection, schedule: Q04DX003 (ip), vehicle: saline 96 % of control | endpoint: mean survival time, dose: 150.0 mg/kg/injection, schedule: Q03HX024 (ip), vehicle: saline 93 % of control | endpoint: mean survival time, dose: 200.0 mg/kg/injection, schedule: Q01DX001 (ip), vehicle: saline 104 % of control | endpoint: mean survival time, dose: 200.0 mg/kg/injection, schedule: Q01DX005 (iv), vehicle: saline 102 % of control | endpoint: mean survival time, dose: 200.0 mg/kg/injection, schedule: Q01DX009 (im), vehicle: saline 98 % of control | endpoint: mean survival time, dose: 200.0 mg/kg/injection, schedule: Q01DX009 (ip), vehicle: saline 101 % of control | endpoint: mean survival time, dose: 200.0 mg/kg/injection, schedule: Q01DX009 (oral), vehicle: saline 96 % of control | endpoint: mean survival time, dose: 300.0 mg/kg/injection, schedule: Q01DX009 (ip), vehicle: saline 97 % of control | endpoint: mean survival time, dose: 400.0 mg/kg/injection, schedule: Q01DX001 (ip), vehicle: saline 93 % of control | endpoint: mean survival time, dose: 400.0 mg/kg/injection, schedule: Q01DX005 (iv), vehicle: saline 101 % of control | endpoint: mean survival time, dose: 400.0 mg/kg/injection, schedule: Q01DX009 (im), vehicle: saline 102 % of control | endpoint: mean survival time, dose: 400.0 mg/kg/injection, schedule: Q01DX009 (ip), vehicle: saline 93 % of control and 95 % of control and 102 % of control | endpoint: mean survival time, dose: 400.0 mg/kg/injection, schedule: Q01DX009 (oral), vehicle: saline 98 % of control | endpoint: mean survival time, dose: 800.0 mg/kg/injection, schedule: Q01DX001 (ip), vehicle: saline 94 % of control | endpoint: mean survival time, dose: 800.0 mg/kg/injection, schedule: Q01DX005 (iv), vehicle: saline 98 % of control | endpoint: mean survival time, dose: 800.0 mg/kg/injection, schedule: Q01DX009 (im), vehicle: saline 93 % of control | endpoint: mean survival time, dose: 800.0 mg/kg/injection, schedule: Q01DX009 (oral), vehicle: saline 94 % of control | endpoint: mean survival time, dose: 1200.0 mg/kg/injection, schedule: Q01DX001 (ip), vehicle: saline 100 % of control | endpoint: mean survival time, dose: 1600.0 mg/kg/injection, schedule: Q01DX001 (ip), vehicle: saline 100 % of control | endpoint: mean survival time, dose: 1600.0 mg/kg/injection, schedule: Q01DX009 (im), vehicle: saline 98 % of control | endpoint: mean survival time, dose: 1600.0 mg/kg/injection, schedule: Q01DX009 (oral), vehicle: saline 96 % of control | endpoint: median survival time, dose: 500.0 mg/kg/injection, schedule: Q01DX001 (oral), vehicle: water 100 % of control | endpoint: median survival time, dose: 1000.0 mg/kg/injection, schedule: Q01DX001 (oral), vehicle: water 100 % of control | endpoint: median survival time, dose: 1500.0 mg/kg/injection, schedule: Q01DX001 (oral), vehicle: water 94 % of control | endpoint: median survival time, dose: 3000.0 mg/kg/injection, schedule: Q01DX001 (oral), vehicle: water 100 % of control
